Data: BindingDB's records for doi:10.1016/j.bmcl.2009.06.075 (Pfizer, 2009)

Assay: Antagonist activity at human P2Y12 receptor assessed as inhibition of ADP-induced platelet-rich plasma aggregation by turbidimetric method

Row | Structure (SMILES) | IC50 [µM]
1 | CCOC(=O)N1CCN(C(=O)[C@H](CCC(=O)O)NC(=O)c2cc(OCCO)cc(-c3ccccc3)n2)CC1 [(4S)5-[4-(Ethoxycarbonyl)iperazin-1-yl]-4-({[4-(2-hydroxyethoxy)6-phenylpyridin-2-yl]carbonyl}amino)5-oxopentanoicAcid] | 7.6
2 | CCCCOc1cc(C(=O)N[C@@H](CCC(=O)O)C(=O)N2CCN(C(=O)OCC)CC2)nc(-c2ccccc2)c1 [(4S)4-{[(4-Butoxy-6-phenylpyridin-2-yl)carbonyl]amino}-5-[4-(ethoxycarbonyl)iperazin-1-yl]-5-oxopentanoic Acid] | 33.9
3 | CCOC(=O)N1CCN(C(=O)[C@H](CCC(=O)O)NC(=O)c2cc(N(CC)CC)cc(-c3ccccc3)n2)CC1 [(S)-4-(4-(diethylamino)-6-phenylpicolinamido)-5-(4-(ethoxycarbonyl)piperazin-1-yl)-5-oxopentanoic acid] | > 100
4 | COC(=O)N1CCN(C(=O)[C@H](CCC(=O)O)NC(=O)c2cccc(-c3ccccc3)n2)CC1 [(S)-5-(4-(methoxycarbonyl)piperazin-1-yl)-5-oxo-4-(6-phenylpicolinamido)pentanoic acid] | > 100
5 | CCCCCOC(=O)N1CCN(C(=O)[C@H](CCC(=O)O)NC(=O)c2cc(N3CCC(O)CC3)cc(-c3ccccc3)n2)CC1 [(S)-4-(4-(4-hydroxypiperidin-1-yl)-6-phenylpicolinamido)-5-oxo-5-(4-(pentyloxycarbonyl)piperazin-1-yl)pentanoic acid] | 2.4
6 | CCCCCCOC(=O)N1CCN(C(=O)[C@H](CCC(=O)O)NC(=O)c2cc(N(C)CCS(C)(=O)=O)cc(-c3ccccc3)n2)CC1 [(S)-4-(4-(methyl(2-(methylsulfonyl)ethyl)amino)-6-phenylpicolinamido)-5-oxo-5-(4-(hexyloxycarbonyl)piperazin-1-yl)pentanoic acid] | 17.7
7 | CCCCCCOC(=O)N1CCN(C(=O)[C@H](CCC(=O)O)NC(=O)c2cc(N3CCC(COC)CC3)cc(-c3ccccc3)n2)CC1 [(S)-5-(4-(hexyloxycarbonyl)piperazin-1-yl)-4-(4-(4-(methoxymethyl)piperidin-1-yl)-6-phenylpicolinamido)-5-oxopentanoic acid] | 7.6
8 | CCOC(=O)N1CCN(C(=O)[C@H](CCC(=O)O)NC(=O)c2cc(OC)cc(-c3ccccc3)n2)CC1 [(S)-5-(4-(ethoxycarbonyl)piperazin-1-yl)-4-(4-methoxy-6-phenylpicolinamido)-5-oxopentanoic acid] | 39
9 | CCCCCOC(=O)N1CCN(C(=O)[C@H](CCC(=O)O)NC(=O)c2cc(N(C)CCS(C)(=O)=O)cc(-c3ccccc3)n2)CC1 [(S)-4-(4-(methyl(2-(methylsulfonyl)ethyl)amino)-6-phenylpicolinamido)-5-oxo-5-(4-(pentyloxycarbonyl)piperazin-1-yl)pentanoic acid] | 4.1
10 | CCCCOC(=O)N1CCN(C(=O)[C@H](CCC(=O)O)NC(=O)c2cc(OCCO)cc(-c3ccccc3)n2)CC1 [(S)-5-(4-(butoxycarbonyl)piperazin-1-yl)-4-(4-(2-hydroxyethoxy)-6-phenylpicolinamido)-5-oxopentanoic acid] | 7.8
11 | Cc1cccc(N2CCN(C(=O)[C@H](CCC(=O)O)NC(=O)c3cccc(-c4ccccc4)n3)CC2)c1 [(4S)5-[4-(3-Methylphenyl)piperazin-1-yl]-5-oxo-4-{[(6-phenylpyridin-2-yl)carbonyl]amino}pentanoicAcid] | > 100
12 | CCCCCCOC(=O)N1CCN(C(=O)[C@H](CCC(=O)O)NC(=O)c2cccc(-c3ccccc3)n2)CC1 [(S)-5-(4-(hexyloxycarbonyl)piperazin-1-yl)-5-oxo-4-(6-phenylpicolinamido)pentanoic acid] | 19
13 | CCOC(=O)N1CCN(C(=O)[C@H](CCC(=O)O)NC(=O)c2cc(NC)cc(-c3ccccc3)n2)CC1 [(4S)5-[4-(Ethoxycarbonyl)piperazin-1-yl]-4-({[4-(methylamino)6-phenylpyridin-2-yl]carbonyl}amino)5-oxopentanoic Acid] | 45
14 | CCOC(=O)N1CCN(C(=O)[C@H](CCC(=O)O)NC(=O)c2cc(OC(CC)C(=O)N(CC)CC)cc(-c3ccccc3)n2)CC1 (stereo partly drawn) [(4S)-4-(4-(1-(diethylamino)-1-oxobutan-2-yloxy)-6-phenylpicolinamido)-5-(4-(ethoxycarbonyl)piperazin-1-yl)-5-oxopentanoic acid] | 3
15 | CCOC(=O)N1CCN(C(=O)[C@H](CCC(=O)O)NC(=O)c2cc(OC3CCNCC3)cc(-c3ccccc3)n2)CC1 [(S)-5-(4-(ethoxycarbonyl)piperazin-1-yl)-5-oxo-4-(6-phenyl-4-(piperidin-4-yloxy)picolinamido)pentanoic acid] | 1.9
16 | CCCCCOC(=O)N1CCN(C(=O)[C@H](CCC(=O)O)NC(=O)c2cc(OCCCC)cc(-c3ccccc3)n2)CC1 [(4S)4-{[(4-Butoxy-6-phenylpyridin-2-yl)carbonyl]amino}-5-oxo-5-{4-[(pentyloxy)carbonyl]piperazin-1-yl}pentanoic Acid] | 28.4
17 | CCOC(=O)N1CCN(C(=O)[C@H](CCC(=O)O)NC(=O)c2cc(OCC3CCNCC3)cc(-c3ccccc3)n2)CC1 [(S)-5-(4-(ethoxycarbonyl)piperazin-1-yl)-5-oxo-4-(6-phenyl-4-(piperidin-4-ylmethoxy)picolinamido)pentanoic acid] | 4
18 | CCOC(=O)N1CCN(C(=O)[C@H](CCC(=O)O)NC(=O)c2cc(N3CCN(CCN(C)C)CC3)cc(-c3ccccc3)n2)CC1 [(S)-4-(4-(4-(2-(dimethylamino)ethyl)piperazin-1-yl)-6-phenylpicolinamido)-5-(4-(ethoxycarbonyl)piperazin-1-yl)-5-oxopentanoic acid] | 2.3
19 | COCCOc1cc(C(=O)N[C@@H](CCC(=O)O)C(=O)N2CCN(C(=O)OC(C)C)CC2)nc(-c2ccccc2)c1 [(S)-5-(4-(isopropoxycarbonyl)piperazin-1-yl)-4-(4-(2-methoxyethoxy)-6-phenylpicolinamido)-5-oxopentanoic acid] | 20.1
20 | CCCCCOC(=O)N1CCN(C(=O)[C@H](CCC(=O)O)NC(=O)c2cccc(-c3ccccc3)n2)CC1 [(S)-5-oxo-5-(4-(pentyloxycarbonyl)piperazin-1-yl)-4-(6-phenylpicolinamido)pentanoic acid] | 15
21 | CCCCCCOC(=O)N1CCN(C(=O)[C@H](CCC(=O)O)NC(=O)c2cc(N3CCC(O)CC3)cc(-c3ccccc3)n2)CC1 [(S)-5-(4-(hexyloxycarbonyl)piperazin-1-yl)-4-(4-(4-hydroxypiperidin-1-yl)-6-phenylpicolinamido)-5-oxopentanoic acid] | 6.4
22 | CCCCCOC(=O)N1CCN(C(=O)[C@H](CCC(=O)O)NC(=O)c2cc(OCCO)cc(-c3ccccc3)n2)CC1 [(4S)4-({[4-(2-Hydroxyethoxy)6-phenylpyridin-2-yl]carbonyl}-amino)5-oxo-5-{4-[(pentyloxy)carbonyl]piperazin-1-yl}pentanoicAcid] | 11.5
23 | CCOC(=O)N1CCN(C(=O)[C@H](CCC(=O)O)NC(=O)c2cc(NCC3CCNCC3)cc(-c3ccccc3)n2)CC1 [(S)-5-(4-(ethoxycarbonyl)piperazin-1-yl)-5-oxo-4-(6-phenyl-4-(piperidin-4-ylmethylamino)picolinamido)pentanoic acid] | 8.5
24 | CCOC(=O)N1CCN(C(=O)[C@H](CCC(=O)O)NC(=O)c2cc(NCCO)cc(-c3ccccc3)n2)CC1 [(S)-5-(4-(ethoxycarbonyl)piperazin-1-yl)-4-(4-(2-hydroxyethylamino)-6-phenylpicolinamido)-5-oxopentanoic acid] | 8.1
